In ChEMBL document CHEMBL1201862, “PubChem BioAssay data set” (2004):
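Test compounds were applied to cells in 96-well plates for 48 hours at 5 doses. GI50 is the concentration that inhibits growth by half.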 The source made the active and inactive calls. Rule as the data show it: active = GI50 up to about 1.1 µM and inactive = higher.

What was measured:
Assay in all cases: growth of human tumour cells (NCI), 48 h
M19-MEL = test system: M19-MEL
KM-20L2 = test system: KM-20L2
HOP-18 = test system: HOP-18
LXFL 529 = test system: LXFL 529
DLD-1 = test system: DLD-1
RXF 631 = test system: RXF 631
SNB-78 = test system: SNB-78
DMS-114 = test system: DMS-114
DMS-273 = test system: DMS-273

Structure (SMILES)	GI50 (M19-MEL)	GI50 (KM-20L2)	GI50 (HOP-18)	GI50 (LXFL 529)	GI50 (DLD-1)	GI50 (RXF 631)	GI50 (SNB-78)	GI50 (DMS-114)	GI50 (DMS-273)
N#C/C(=C\c1ccc[nH]1)C(=O)c1ccccc1	> 100 µM (inactive)	> 100 µM (inactive)	70.3 µM (inactive)	> 100 µM (inactive)	> 100 µM (inactive)	> 100 µM (inactive)	> 100 µM (inactive)	> 100 µM (inactive)	> 100 µM (inactive)
O=C(Nc1ccc(Cl)cc1)C1C(=O)C(=O)N(c2ccc(Cl)cc2)C1=O (centres undefined)	> 100 µM (inactive)	45.8 µM (inactive)	> 100 µM (inactive)	59.2 µM (inactive)	68.9 µM (inactive)	> 100 µM (inactive)	54 µM (inactive)	> 100 µM (inactive)	> 100 µM (inactive)
C1=CC2SSSC2C1 (centres undefined)	> 100 µM (inactive)	> 100 µM (inactive)	> 100 µM (inactive)	> 100 µM (inactive)	> 100 µM (inactive)			> 100 µM (inactive)	> 100 µM (inactive)
C/C(CN1C(=O)c2ccccc2C1=O)=N\NS(=O)(=O)c1ccccc1	> 100 µM (inactive)	> 100 µM (inactive)	> 100 µM (inactive)	> 100 µM (inactive)	> 100 µM (inactive)	> 100 µM (inactive)	> 100 µM (inactive)	> 100 µM (inactive)	> 100 µM (inactive)
Nc1ccc(CCN2CCN(c3cccc(C(F)(F)F)c3)CC2)cc1	> 100 µM (inactive)	> 100 µM (inactive)	> 100 µM (inactive)	> 100 µM (inactive)	97.1 µM (inactive)	56.5 µM (inactive)		26.4 µM (inactive)	
O=C(N/C(=C\c1ccc([N+](=O)[O-])cc1)c1nc2ccccc2s1)c1ccccc1	22.9 µM (inactive)	40.7 µM (inactive)	18.5 µM (inactive)	18.8 µM (inactive)	19.9 µM (inactive)		37.4 µM (inactive)	23.3 µM (inactive)	35.7 µM (inactive)
COc1ccc(CCN(C)C2CCC(C#N)(c3ccc(OC)c(OC)c3)CC2)cc1OC (centres undefined)	> 100 µM (inactive)	48.4 µM (inactive)	> 100 µM (inactive)	> 100 µM (inactive)	> 100 µM (inactive)	61.2 µM (inactive)			> 100 µM (inactive)
C/C=C1\CCC2c3[nH]c4ccccc4c3CCN2C1 (centres undefined)	> 100 µM (inactive)	45.6 µM (inactive)		> 100 µM (inactive)	> 100 µM (inactive)		> 100 µM (inactive)	91.8 µM (inactive)	> 100 µM (inactive)
COc1cc2cc3c4c(cc(OC)c(OC)c4c2cc1OC)CCN3C(=O)CCCC(=O)O	> 100 µM (inactive)	> 100 µM (inactive)		> 100 µM (inactive)	> 100 µM (inactive)		48.1 µM (inactive)	> 100 µM (inactive)	> 100 µM (inactive)
O=C(O)C1CC2CC(=O)C1C2 (centres undefined)	> 100 µM (inactive)	> 100 µM (inactive)	> 100 µM (inactive)	> 100 µM (inactive)	> 100 µM (inactive)	> 100 µM (inactive)	> 100 µM (inactive)		> 100 µM (inactive)
NN/C(Cc1ccccc1)=N/NC(N)=S	> 100 µM (inactive)	> 100 µM (inactive)	24 µM (inactive)	> 100 µM (inactive)	> 100 µM (inactive)	> 100 µM (inactive)		41.3 µM (inactive)	> 100 µM (inactive)
Cc1nn(-c2ccccc2)c(S)c1C(=O)c1ccccc1		53 µM (inactive)	< 0.01 µM (active)	18.2 µM (inactive)	4.85 µM (inactive)	27 µM (inactive)	24.4 µM (inactive)	26.4 µM (inactive)	40.1 µM (inactive)
CCOC(=O)/C(O)=C(/C(=O)OC)c1ccc(Cl)cc1	> 100 µM (inactive)	> 100 µM (inactive)		> 100 µM (inactive)	> 100 µM (inactive)	> 100 µM (inactive)	> 100 µM (inactive)	> 100 µM (inactive)	> 100 µM (inactive)
COc1ccc2c(c1)[n+]([O-])c(C(=O)C/C(=N/OCCCc1ccccc1)C(=O)NC13CC4CC(CC(C4)C1)C3)c(C)[n+]2[O-]	> 100 µM (inactive)	> 100 µM (inactive)	> 100 µM (inactive)	> 100 µM (inactive)	> 100 µM (inactive)	> 100 µM (inactive)	> 100 µM (inactive)	> 100 µM (inactive)	> 100 µM (inactive)
COc1ccc(NC(=O)C2=CC(=O)c3ccc(O)cc3C2=O)c(OC)c1	> 100 µM (inactive)	> 100 µM (inactive)	> 100 µM (inactive)	> 100 µM (inactive)	> 100 µM (inactive)	> 100 µM (inactive)	> 100 µM (inactive)	> 100 µM (inactive)	
SC1=NC2(CCCCCC2)NN1c1ccccc1			> 100 µM (inactive)	0.0407 µM (active)	0.34 µM (active)	2.81 µM (inactive)		0.273 µM (active)	0.166 µM (active)
O=C(CC1C(=O)Nc2ccccc2[S+]1[O-])Nc1cccc(Cl)c1 (centres undefined)	> 100 µM (inactive)	> 100 µM (inactive)	> 100 µM (inactive)	91.8 µM (inactive)	> 100 µM (inactive)		40.9 µM (inactive)	47.1 µM (inactive)	
CCCCC(C(=O)C(=O)Nc1ccc(C)cc1C)C(=O)C(C)C (centres undefined)	> 100 µM (inactive)	> 100 µM (inactive)	> 100 µM (inactive)	> 100 µM (inactive)	> 100 µM (inactive)	> 100 µM (inactive)	> 100 µM (inactive)	> 100 µM (inactive)	> 100 µM (inactive)
Cc1ccccc1C1SCc2nc3ccccc3n21 (centres undefined)	> 100 µM (inactive)		> 100 µM (inactive)		> 100 µM (inactive)		> 100 µM (inactive)	6.79 µM (inactive)	4.6 µM (inactive)
CC(=O)NC(CCCNC(=O)N(CCCl)N=O)C(=O)NCc1ccccc1 (centres undefined)	> 100 µM (inactive)	> 100 µM (inactive)	> 100 µM (inactive)	> 100 µM (inactive)	58.6 µM (inactive)			> 100 µM (inactive)	> 100 µM (inactive)
O=C(CC1C(=O)c2ccccc2C1=C1C(=O)c2ccccc2C1=O)c1ccccc1 (centres undefined)	78.9 µM (inactive)	> 100 µM (inactive)	> 100 µM (inactive)	85.5 µM (inactive)	> 100 µM (inactive)		> 100 µM (inactive)	> 100 µM (inactive)	> 100 µM (inactive)
CC12Oc3ccc4ccccc4c3CC1Cc1c(ccc3ccccc13)O2 (centres undefined)	> 100 µM (inactive)	> 100 µM (inactive)	35.9 µM (inactive)	45.4 µM (inactive)	58.1 µM (inactive)			60.1 µM (inactive)	18.8 µM (inactive)
N=C(N)/N=C(/C=C/c1ccccc1)CC1OC(=O)c2ccccc21 (centres undefined)	> 100 µM (inactive)	> 100 µM (inactive)		> 100 µM (inactive)	> 100 µM (inactive)			> 100 µM (inactive)	> 100 µM (inactive)
CCOC(=O)/C(=C/c1ccccc1)N(CC)CC	> 100 µM (inactive)	> 100 µM (inactive)		> 100 µM (inactive)			> 100 µM (inactive)	> 100 µM (inactive)	> 100 µM (inactive)
Cc1cc2c(C)n(Cc3ccc(Cl)cc3Cl)nc2c(C(=O)O)c1C	> 100 µM (inactive)	> 100 µM (inactive)	> 100 µM (inactive)	> 100 µM (inactive)	> 100 µM (inactive)	> 100 µM (inactive)	> 100 µM (inactive)		> 100 µM (inactive)
S=C(N/N=C/c1ccccc1)NC1CC(c2ccccc2)Oc2ccccc21 (centres undefined)	> 100 µM (inactive)			> 100 µM (inactive)	91.8 µM (inactive)		22 µM (inactive)	43.2 µM (inactive)	66.7 µM (inactive)
Nc1ccc2c(SCC(=O)Nc3ccccc3-c3ccccc3NC(=O)CSc3c4ccccc4nc4cc(N)ccc34)c3ccccc3nc2c1	20.2 µM (inactive)	33.1 µM (inactive)	26 µM (inactive)	11.5 µM (inactive)	12.9 µM (inactive)	27.9 µM (inactive)	40.9 µM (inactive)	18.9 µM (inactive)	33 µM (inactive)
COc1cc(CC2c3cc(OC)c(OC)cc3CCN2C)c(C(=O)O)cc1OC (centres undefined)	> 100 µM (inactive)	> 100 µM (inactive)	> 100 µM (inactive)	> 100 µM (inactive)	> 100 µM (inactive)		> 100 µM (inactive)	> 100 µM (inactive)	> 100 µM (inactive)
COc1ccc(OC)c(/C=C/C(=O)C(C)(C)C)c1	16.3 µM (inactive)	23.6 µM (inactive)	21.3 µM (inactive)	19.2 µM (inactive)	19.9 µM (inactive)	32.8 µM (inactive)		15.2 µM (inactive)	21.1 µM (inactive)
Cc1cc(=O)oc2cc3c(cc12)Oc1ccccc1O3	> 100 µM (inactive)	> 100 µM (inactive)	> 100 µM (inactive)	> 100 µM (inactive)	> 100 µM (inactive)	> 100 µM (inactive)	53 µM (inactive)	> 100 µM (inactive)	> 100 µM (inactive)
